This is an account of results in patent publication US20230218589A1, “COMPOUND FOR PREVENTION OR TREATMENT OF A SKIN CANCER OR SKIN PRECANCER” (UNIQUEST PTY LTD, priority 2020, published 2023).

Like-named read-outs stand apart in the source and are kept apart here. Bounds are passed on as bounds.

The subject of data set [1] is human T cells. As to the kind of experiment: Human T cell proliferation assay (PBMCs, anti-CD3, CellTiter-Glo). The format is cell-based. How it is done: Cyclosporine A 1 mg/mL stock (CsA—Sigma) was dissolved in DMSO, Rapamycin 5 mg/mL stock (LC Labs) was dissolved in ethanol.
Under sterile conditions, a 96 well flat bottom plate with white opaque walls (Perkin Elmer) was coated with 10 μg per well of purified human anti-CD3 antibody (clone OKT-3; Biolegend) in a volume of 50 μL per well in sterile PBS. The plate was covered in parafilm and incubated overnight at 4° C. Just prior to addition of Peripheral Blood Mononuclear Cells (PBMCs), the antibody solution was removed and discarded using a multichannel pipette. Wells were washed by adding 200 μL sterile PBS to each well and incubating for 2 min. PBS wash solution was removed and discarded following incubation. The wash step was repeated once, for a total of two PBS washes.
20 mL of blood from a consenting healthy volunteer was collected into lithium heparin vacuette containers (Greiner Bio-One). Under sterile conditions, blood from each container was pooled into a single tube and mixed thoroughly with 20 mL FACS buffer (2% FBS in 1×PBS). 15 mL Ficoll-Paque (GE Healthcare) was added to two 50 mL Falcon tubes, before 20 mL of whole blood/FACS buffer mixture was carefully and slowly dispensed on top of the Ficoll layer. Tubes were centrifuged at 800 g for 20 min at room temperature with the brake off. After centrifugation, the resulting PBMC layer between the plasma and Ficoll layers was carefully removed and transferred to a new 50 mL Falcon tube. Tubes were topped up to 45 mL with FACS buffer, then centrifuged at 500 g for 15 min. Supernatant was carefully removed without disturbing cell pellet, then PBMCs from both tubes were pooled. 30 mL of pre-warmed complete RPMI media [RPMI 1640 (Gibco), 10% heat inactivated FBS (Gibco), 1× Penicillin/Streptomycin/L-Glutamine (Gibco), 100 μM 2-Mercaptoethanol (Sigma)] was added to PBMCs, before centrifugation at 500 g for 15 min at room temperature. Supernatant was removed carefully without disturbing cell pellet. PBMCs were resuspended in 1 mL complete RPMI media.
PBMCs were counted manually using a haemocytometer and cell concentration was adjusted to 1.5×10^6 cells/mL with complete RPMI media. 50 μL of cell suspension was added to appropriate wells of the 96 well flat bottom plate with white opaque walls pre-coated in human anti-CD3. The final number of cells per well was 7.5×10^4.
Cells were incubated in a humidified incubator at 37° C. with 5% CO2 for 1 hour before Compound 1 (or vehicle only) was diluted in complete RPMI medium and added to the appropriate wells at the concentration required. The final volume in all wells was 100 μL. Cells were incubated for 5 days in a humidified incubator at 37° C. with 5% CO2.
CellTiter-Glo Luminescent Cell Viability Assay (Promega) was performed to determine the level of metabolically active cells per well based on ATP quantification. CellTiter-Glo Buffer and lyophilised CellTiter-Glo Substrate were equilibrated to room temperature. CellTiter-Glo Substrate was reconstituted with 10 mL CellTiter-Glo Buffer and gently vortexed for 1 minute to create the CellTiter-Glo Reagent. The 96 well plate containing PBMCs was equilibrated to room temperature for 30 min. Once at room temperature, 100 μL of CellTiter-Glo Reagent was dispensed using a multichannel pipette into each well containing 100 μL cells and media. The plate was mixed for 2 min at room temperature on an orbital shaker to induce cell lysis. The plate was then incubated for 10 min at room temperature in the dark to stabilize the luminescence signal. Luminescence signal was recorded using a CLARIOstar Plus plate reader (BMG Labtech).
PBMCs were stimulated with human anti-CD3 antibody and T cells were allowed to proliferate at 37° C. with 5% CO2 in a humidified incubator for 5 days. Proliferation/viability was assessed via a CellTiter-Glo Luminescent Cell Viability Assay and luminescence was read using a CLARIOstar Plus plate reader. […]
On the technique in general: In ATP-based viability assays light output follows the ATP content of the culture.

The nature of data set [2]: cSCC tumour pharmacokinetics after intra-tumoural injection (LC/MS/MS). The format is in vivo, mouse. As to conditions: for concentration at 1 h / concentration at 6 h / concentration at 18 h: K14-HPV38-E6/E7, mouse, in vivo. As to the method: Tumour processing: The whole tumour was removed from the mouse. The weight of the tumour was recorded and tumour was placed into an appropriate cryovial on dry ice then transferred to a −80° C. freezer. 3 tumours per time point were assessed.
Calibration standards and quality control samples were prepared by adding 2.5 μL of stock solutions of test compound of different concentrations into 25 μL of naive mouse blood or skin homogenates. Control samples were prepared by spiking 2.5 μL of water or acetonitrile into 25 μL of naïve mouse blood or skin homogenates. Tumour samples were homogenised in 1 mL of PBS then transferred into polypropylene Eppendorf tubes. 100 μL of 0.1 M zinc sulfate was added into the tubes, vortexed for 10 sec, and 250 μL of HPLC-grade acetonitrile containing internal standard (pimecrolimus) was added, vortexed for 2 min, and centrifuged for 3 min at 800×g. 20-40 μL of the supernatant was analysed by LCMS/MS. Instrument: Acquity UPLC, Waters. Column: Acquity BEH C18 100×2.1 mm, 1.7 micron; Mobile phase A: methanol; Mobile phase B: 5 mM ammonium acetate with 0.1% formic acid; Mobile phase gradient details: T=0 min (10% A, 90% B); T=0.01 min (10% A, 90% B); gradient to T=1.5 min (95% A, 5% B); T=3.2 min (95% A, 5% B). Flow rate: 0.3 mL/min, run time: 4.5 min; Ionisation mode: Electrospray ionisation (positive).

Data set [3] relates to T lymphocytes. As to conditions: cited from earlier work.

For the compound `CC[C@@H]1/C=C(\C)[C@@H](O)[C@H](C)C[C@H](OC)[C@H]2O[C@@](O)(C(=O)C(=O)N3CCCC[C@H]3C(=O)O[C@H](/C(C)=C/[C@@H]3CC[C@@H](O)[C@H](OC)C3)[C@H](C)[C@@H](O)CC1=O)[C@H](C)C[C@@H]2OC` [Compound 1, 17-Ethyl-1,14,20-trihydroxy-12-[2′-(4″-hydroxy-3″-methoxycyclohexyl)-1′-methylvinyl]-23,25-dimethoxy-13,19,21,27-tetramethyl-11,28-dioxa-4-azatricyclo-[22.3.1.0^4,9]octacos-18-ene-2,3,10,16-tetraone], in data set [1] (0.3 μM, 1 μM and 3 μM Compound 1 with 1 ng/mL rapamycin, 5 days), the “rescue of T cell proliferation in the presence of rapamycin” value is reported as “significantly rescued”. Further, the “rescue of T cell proliferation in the presence of cyclosporine A” value in data set [1] (0.3 μM, 1 μM and 3 μM Compound 1 with 50 ng/mL cyclosporine A, 5 days) is “unable to rescue”. Besides, the “rescue of T cell proliferation in the presence of tacrolimus” value in data set [1] (1 μM and 3 μM Compound 1 with 0.6 ng/mL tacrolimus, 5 days) is “dose dependently and significantly rescued”. Also, in data set [1] (no tacrolimus, 5 days), the “T cell proliferation/viability with Compound 1 alone” value is “did not significantly alter”. Moreover, the concentration at 1 h in data set [2] (1 h post final dose, SCC tumours, read-out: Average Concentration Compound 1 in tumour) turned out to be 165000 ng/g. For the same compound, in data set [2] (6 h post final dose, SCC tumours, read-out: Average Concentration Compound 1 in tumour), the concentration at 6 h was 148000 ng/g. The concentration at 18 h in data set [2] (18 h post final dose, SCC tumours, read-out: Average Concentration Compound 1 in tumour) was 168000 ng/g. Besides, in data set [2] (over 18 h), the “average tumour concentration of Compound 1 relative to that of tacrolimus” value is “more than 2000 fold”. In data set [3] (cultured with tacrolimus 1.2 nM, C57B1/6 mouse spleen T lymphocytes, read-out: ED50, concentration required to inhibit tritiated thymidine uptake of T cells by 50%), the EC50 is less than 50 µM.

For the compound `C=CC[C@@H]1/C=C(\C)C[C@H](C)C[C@H](OC)[C@H]2O[C@@](O)(C(=O)C(=O)N3CCCC[C@H]3C(=O)O[C@H](/C(C)=C/[C@@H]3CC[C@@H](O)[C@H](OC)C3)[C@H](C)[C@@H](O)CC1=O)[C@H](C)C[C@@H]2OC` [tacrolimus, reference compound], the “T cell proliferation compared to the vehicle control” value in data set [1] (0.6 ng/mL tacrolimus, anti-CD3, 5 days) is on record as “inhibited”. In data set [2], this compound had a concentration at 1 h of 33 ng/g, a concentration at 6 h of 73 ng/g and a concentration at 18 h of 52 ng/g. The “inhibition of T cell proliferation” value in data set [3] (tacrolimus 1.2 nM) was 100%.
